In test [1] the test system is Ah receptor. To be noted: Carver et al., 1994 JBC 269:30109-30112; cited from earlier work.
For test [2], the target named is T1, AhR (Rattus norvegicus, UniProt P41738).
T1 construct: The cytosol containing AhR heteromers was stored at; from tissue; host or cells: liver cytosol of Long-Evans rats
Put plainly: Receptor capture assay, real-time PCR, AhR derived from rat. The class given is biochemical. The method, then: A set of calibrators consisting of 5000, 2500, 1250, 626, 313, 156, and 78 parts per trillion (ppt or pg/ml) 2,3,7,8-tetrachlorodibenzo-p-dioxin (TCDD) was prepared in methanol. In addition to TCDD a set of calibrators for AhR agonist, beta-naphthoflavone (BNF) was prepared and analyzed in the assay. Separately, 25 ul of 1:50,000 dilution of 10 uM stock nucleic acid-tracer was added per 1 ml of rodent cytosol, which was the source of AhR, and was aliquoted into glass tubes. The standards were diluted 1:20 into 50-100 ul of rodent cytosol, and incubated for 1-2 hr at room temperature to 37° C. Following incubation, 40 to 100 ul of the reaction was transferred to each well of the antibody-coated Capture Strip and incubated on a shaking platform for 30 min to 1 hr at room temperature. The Capture Strips were washed 5 times with Wash Buffer B, and aspirated; optionally soaking wells for 30 sec-5 min with wash buffer during each cycle. Taqman® Universal PCR Master Mix, primers, and Taqman® probe (Applied Biosystems, Calif.) were added, and adhesive cover applied. PCR was performed and analyzed using an ABI PRISM® 7700, using default settings: 50° C., 2 min, 95° C. […] A threshold cycle (Ct) was determined for each reaction The Ct represents the PCR cycle at which an increase in reporter fluorescence above baseline signal can first be detected.
A general note: Real-time PCR tracks product formation cycle by cycle.

In test [3] the test system is AhR. Description: Receptor capture assay, real-time PCR, rodent cytosol as source of AhR. The class given is biochemical. The method, then:
A set of calibrators consisting of 5000, 2500, 1250, […], 313, 156, and 78 parts per trillion (ppt or pg/ml) 2,3,7,8-tetrachlorodibenzo-p-dioxin (TCDD) was prepared in methanol. In addition to TCDD a set of calibrators for AhR agonist, beta-naphthoflavone (BNF) was prepared and analyzed in the assay. Separately, 25 ul of 1:50,000 dilution of 10 uM stock nucleic acid-tracer was added per 1 ml of rodent cytosol, which was the source of AhR, and was aliquoted into glass tubes. The standards were diluted 1:20 into 50-100 ul of rodent cytosol, and incubated for 1-2 hr at room temperature to 37° C. Following incubation, 40 to 100 ul of the reaction was transferred to each well of the antibody-coated Capture Strip and incubated on a shaking platform for 30 min to 1 hr at room temperature. The Capture Strips were washed 5 times with Wash Buffer B, and aspirated; optionally soaking wells for 30 sec-5 min with wash buffer during each cycle. Taqman® Universal PCR Master Mix, primers, and Taqman® probe (Applied Biosystems, Calif.) were added, and adhesive cover applied. PCR was performed and analyzed using an ABI PRISM® 7700, using default settings: 50° C., 2 min, 95° C. 10 min, and 40 cycles of [95° C., 15 sec, 60° C., 60 sec]. A threshold cycle (Ct) was determined for each reaction The Ct represents the PCR cycle at which an increase in reporter fluorescence above baseline signal can first be detected.

T1 sequence (P41738 10-853): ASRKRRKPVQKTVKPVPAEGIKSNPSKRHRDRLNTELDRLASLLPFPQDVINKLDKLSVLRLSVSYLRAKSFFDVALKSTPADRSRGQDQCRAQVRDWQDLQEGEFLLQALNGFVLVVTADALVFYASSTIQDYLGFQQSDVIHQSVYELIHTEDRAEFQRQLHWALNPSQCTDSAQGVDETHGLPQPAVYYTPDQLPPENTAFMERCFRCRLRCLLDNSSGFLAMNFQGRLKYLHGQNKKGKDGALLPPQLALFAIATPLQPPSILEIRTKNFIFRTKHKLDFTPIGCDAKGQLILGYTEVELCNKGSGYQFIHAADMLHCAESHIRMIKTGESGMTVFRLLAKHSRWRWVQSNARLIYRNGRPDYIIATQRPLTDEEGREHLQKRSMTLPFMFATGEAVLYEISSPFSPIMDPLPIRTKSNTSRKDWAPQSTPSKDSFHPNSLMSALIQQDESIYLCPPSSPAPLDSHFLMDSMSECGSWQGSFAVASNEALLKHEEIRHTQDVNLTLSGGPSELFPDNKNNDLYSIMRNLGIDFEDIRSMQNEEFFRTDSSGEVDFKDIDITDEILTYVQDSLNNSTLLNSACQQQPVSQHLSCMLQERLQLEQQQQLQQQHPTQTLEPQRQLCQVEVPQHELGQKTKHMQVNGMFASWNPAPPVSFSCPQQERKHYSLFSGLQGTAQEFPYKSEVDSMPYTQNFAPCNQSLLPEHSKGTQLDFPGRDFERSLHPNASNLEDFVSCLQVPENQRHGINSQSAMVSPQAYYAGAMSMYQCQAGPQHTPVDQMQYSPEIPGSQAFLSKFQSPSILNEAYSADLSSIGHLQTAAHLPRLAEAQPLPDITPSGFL
T1 sequence (P41739 whole entry partner): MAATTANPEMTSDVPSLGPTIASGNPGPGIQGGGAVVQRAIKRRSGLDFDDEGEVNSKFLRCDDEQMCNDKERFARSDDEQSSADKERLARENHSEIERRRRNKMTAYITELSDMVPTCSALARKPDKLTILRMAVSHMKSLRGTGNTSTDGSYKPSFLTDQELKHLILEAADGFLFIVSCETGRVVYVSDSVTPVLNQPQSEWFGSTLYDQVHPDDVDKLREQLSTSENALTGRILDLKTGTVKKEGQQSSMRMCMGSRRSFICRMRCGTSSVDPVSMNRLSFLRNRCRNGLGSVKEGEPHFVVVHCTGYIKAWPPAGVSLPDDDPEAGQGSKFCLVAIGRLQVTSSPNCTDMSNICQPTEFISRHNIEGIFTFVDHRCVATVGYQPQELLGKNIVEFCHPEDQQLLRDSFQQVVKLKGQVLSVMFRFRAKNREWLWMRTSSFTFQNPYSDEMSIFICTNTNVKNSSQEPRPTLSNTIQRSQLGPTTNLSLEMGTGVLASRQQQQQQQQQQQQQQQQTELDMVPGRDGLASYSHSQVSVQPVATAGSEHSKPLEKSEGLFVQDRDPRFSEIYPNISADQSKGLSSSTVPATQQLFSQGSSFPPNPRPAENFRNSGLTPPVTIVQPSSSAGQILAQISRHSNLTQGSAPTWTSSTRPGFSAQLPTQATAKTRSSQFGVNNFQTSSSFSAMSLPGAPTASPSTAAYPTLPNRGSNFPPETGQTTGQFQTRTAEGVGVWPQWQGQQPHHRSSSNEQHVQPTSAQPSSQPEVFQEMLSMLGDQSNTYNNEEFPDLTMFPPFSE

`O=c1cc(-c2ccccc2)oc2ccc3ccccc3c12` [BNF, beta-naphthoflavone]: in test [1], the “affinity for the Ah receptor relative to TCDD” value is “approximately an order of magnitude less affinity for the Ah receptor than TCDD”.
Consider `Clc1cc2c(cc1Cl)Oc1cc(Cl)c(Cl)cc1O2` [TCDD, 2,3,7,8-tetrachlorodibenzo-p-dioxin], for which, in test [2], the “slope of dose-response curve” value was −1.208. The “EC50 of dose-response curve” value in test [2] (pg of TCDD in the assay) came to 2.8 pg. Also, the “Ct Values” in test [3] (TCDD 78 ppt) turned out to be 24.52; in test [3] (TCDD 156 ppt), 23.81; in test [3] (TCDD 313 ppt), 23.16; in test [3] (TCDD 1250 ppt) it was 21.3; in test [3] (TCDD 2500 ppt) it was 20.5; in test [3] (TCDD 5000 ppt), 20.28.

Source of the values: patent US20040259096A1, “Receptor capture assay” (priority 2001, published 2004).
